Patent US9561231B2 (AbbVie Inc., priority 2012, dated 2017)

Experiments:
D54MG = assay: Proliferation panel assay: D54MG; type: cell-based; details: 120 h; D54MG (Glioblastoma); 5 days, Cell Titer Glo; read-out: Cellular Proliferation EC50
[1] = molecular target: T1, second (BD2: amino acids E352-E168) bromodomain of BRD4 (Homo sapiens, UniProt O60885); assay: TR-FRET bromodomain binding assay, BRD4 BD2; details: TR-FRET assay protocol (A-G, compound concentration range); Ki calculated from IC50, probe Kd and probe concentration; read-out: TR-FRET Binding Ki: BRD4 (BDII_E352-M457)
T1 construct: protocol
Method in brief: (§1)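 Compounds were serially diluted in DMSO, diluted into pH 6.0 phosphate buffer with NaCl, EDTA, Triton X-100 and DTT, then combined with His-tagged bromodomain and an Alexa647-labeled BET-inhibitor probe. TR-FRET was read, percent inhibition fitted to give IC50, and Ki derived using probe Kd.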

PC3M = assay: Proliferation panel assay: PC3M; type: cell-based; details: Homo sapiens, PC-3M, 120 h; PC3M (Prostate); 5 days, Cell Titer Glo; read-out: Cellular Proliferation EC50
BxPC3FP5 = assay: Proliferation panel assay: BxPC3FP5; type: cell-based; details: 120 h; BxPC3FP5 (Pancreas); 5 days, Cell Titer Glo; read-out: Cellular Proliferation EC50
OPM2 = assay: Proliferation panel assay: OPM2; type: cell-based; details: Homo sapiens, OPM-2, 120 h; OPM2 (Multiple Myeloma); 5 days, Cell Titer Glo; read-out: Cellular Proliferation EC50
SKM1 = assay: Proliferation panel assay: SKM1; type: cell-based; details: Homo sapiens, SKM-1, 120 h; SKM1 (AML); 5 days, Cell Titer Glo; read-out: Cellular Proliferation EC50
H1975 = assay: Proliferation panel assay: H1975; type: cell-based; details: Homo sapiens, NCI-H1975, 120 h; H1975 (NSCLC); 5 days, Cell Titer Glo; read-out: Cellular Proliferation EC50
H1299 = assay: Proliferation panel assay: H1299; type: cell-based; details: Homo sapiens, NCI-H1299, 120 h; H1299 (NSCLC); 5 days, Cell Titer Glo; read-out: Cellular Proliferation EC50
Raji = assay: Proliferation panel assay: Raji; type: cell-based; details: Homo sapiens, 120 h; Raji (Burkitt lymphoma); 5 days, Cell Titer Glo; read-out: Cellular Proliferation EC50
[2] = molecular target: T2, first (BD1: amino acids K57-E168) bromodomain of BRD4 (Homo sapiens, UniProt O60885); assay: TR-FRET bromodomain binding assay, BRD4 BD1; details: TR-FRET assay protocol (A-G, compound concentration range); Ki calculated from IC50, probe Kd and probe concentration; read-out: TR-FRET Binding Ki: BRD4 (BDI_K57-E168)
T2 construct: His-tagged first (BD1: amino acids K57-E168)
Method in brief: as §1

MDAMB453 = assay: Proliferation panel assay: MDAMB453; type: cell-based; details: Homo sapiens, MDA-MB-453, 120 h; MDAMB453 (Breast); 5 days, Cell Titer Glo; read-out: Cellular Proliferation EC50
SK-LMS-1 = assay: Proliferation panel assay: SK-LMS-1; type: cell-based; details: Homo sapiens, 120 h; SK-LMS-1 (Sarcoma); 5 days, Cell Titer Glo; read-out: Cellular Proliferation EC50
Ramos = assay: Proliferation panel assay: Ramos; type: cell-based; details: Homo sapiens, 120 h; Ramos (NHL); 5 days, Cell Titer Glo; read-out: Cellular Proliferation EC50
HepG2 = assay: Proliferation panel assay: HepG2; type: cell-based; details: Homo sapiens, 120 h; HepG2 (Hepatocellular); 5 days, Cell Titer Glo; read-out: Cellular Proliferation EC50
FaDu = assay: Proliferation panel assay: FaDu; type: cell-based; details: Homo sapiens, 120 h; FaDu (Head & Neck); 5 days, Cell Titer Glo; read-out: Cellular Proliferation EC50
NCI-H929 = assay: Proliferation panel assay: NCI-H929; type: cell-based; details: Homo sapiens, 120 h; NCI-H929 (Multiple Myeloma); 5 days, Cell Titer Glo; read-out: Cellular Proliferation EC50
A-375 = assay: Proliferation panel assay: A-375; type: cell-based; details: Homo sapiens, 120 h; A-375 (Melanoma); 5 days, Cell Titer Glo; read-out: Cellular Proliferation EC50
HPAC = assay: Proliferation panel assay: HPAC; type: cell-based; details: Homo sapiens, 120 h; HPAC (Pancreas); 5 days, Cell Titer Glo; read-out: Cellular Proliferation EC50
Ly18 = assay: Proliferation panel assay: Ly18; type: cell-based; details: 120 h; Ly18 (NHL); 5 days, Cell Titer Glo; read-out: Cellular Proliferation EC50
786-0 = assay: Proliferation panel assay: 786-0; type: cell-based; details: Homo sapiens, 120 h; 786-0 (RCC); 5 days, Cell Titer Glo; read-out: Cellular Proliferation EC50

SMILES: Cn1cc(-c2cc(NS(C)(=O)=O)ccc2Oc2ccccc2)ccc1=O [Example 224, N-[3-(1-methyl-6-oxo-1,6-dihydropyridin-3-yl)-4-phenoxyphenyl]methanesulfonamide]
- EC50 (D54MG): 423 nM
- Ki [1]: 113 nM
- EC50 (PC3M): 1450 nM
- EC50 (BxPC3FP5): 230 nM
- EC50 (OPM2): 50 nM
- EC50 (SKM1): 116 nM
- EC50 (H1975): 380 nM
- EC50 (H1299): 750 nM
- EC50 (Raji): 129 nM
- Ki [2]: 48.2 nM
- EC50 (MDAMB453): 320 nM
- EC50 (SK-LMS-1): 448 nM
- EC50 (Ramos): 370 nM
- EC50 (HepG2): 486 nM
- EC50 (FaDu): 280 nM
- EC50 (NCI-H929): 109 nM
- EC50 (A-375): 430 nM
- EC50 (HPAC): 380 nM
- EC50 (Ly18): 520 nM
- EC50 (786-0): 273 nM

SMILES: Cc1cc(-c2cc(NS(C)(=O)=O)ccc2Oc2ccccc2)c[nH]c1=O [Example 261, N-[3-(5-methyl-6-oxo-1,6-dihydropyridin-3-yl)-4-phenoxyphenyl]methanesulfonamide]
- EC50 (D54MG): 338 nM
- Ki [1]: 66.4 nM
- EC50 (PC3M): 1400 nM
- EC50 (BxPC3FP5): 230 nM
- EC50 (OPM2): 55 nM
- EC50 (SKM1): 135 nM
- EC50 (H1975): 470 nM
- EC50 (H1299): 740 nM
- EC50 (Raji): 134 nM
- Ki [2]: 25.9 nM
- EC50 (MDAMB453): 340 nM
- EC50 (SK-LMS-1): 348 nM
- EC50 (Ramos): 390 nM
- EC50 (HepG2): 510 nM
- EC50 (FaDu): 270 nM
- EC50 (NCI-H929): 98 nM
- EC50 (A-375): 498 nM
- EC50 (HPAC): 500 nM
- EC50 (Ly18): 510 nM
- EC50 (786-0): 250 nM
